Results from patent US6271369A, “Chimeric molecules targeted to viral RNAs” (priority 1997, dated 2001).
Entries after “also recorded” stand apart in the source; their conditions may differ.

What was measured:
TAR:vif RNA = test: Cleavage of control TAR:vif RNA (no oligo(rA) tract) in Daudi cell extract; type: biochemical, HIV-1; conditions: 0.2 or 1.0 μM
Excerpt: To determine the ability of the 2-5A:AS chimeric molecule SEQ ID NO:1 to induce site-directed RNA cleavage, a target RNA was constructed having an internal 3',5'-oligo(rA) tract. Hybridization between the (dT18) in SEQ ID NO:1 with the oligo(rA) in the target RNA attracts 2-5A-dependent RNase to the target RNA, resulting in a highly specific cleavage event. The experimental target, TAR:A25 :vif RNA, was produced in vitro from a pSP64-derived plasmid containing a partial cDNA for the HIV vif protein interrupted with 25 adenylyl residues. A control TAR:vif RNA was constructed with the A25 tract deleted. These RNA species, which lack 3'-poly(rA) tails, were radiolabeled at their 3'-termini with [5'-^32 p)-pCp by T4 RNA ligase and gel purified prior to the assay. […]
Daudi cell extracts prepared with dounce homogenization were made by the well known method of Wreschner, et al. in a buffer containing 40mM KCl; 10 mM HEPES pH 7.5; 2.5mM magnesium acetate; 0.5mM ATP; 2.5% glycerol and 2.0mM mercaptoethanol. […] Cleavage products were analyzed in 6% polyacrylamide/8M urea gels (30×40×0.04cm).
This property of the 2-5A:AS molecule was determined by experiments employing unmodified 2-5A. […]

2-5A-dependent RNase = test: Radiobinding (nitrocellulose filter) competition assay for 2-5A-dependent RNase in mouse liver extract; type: binding
Description: SEQ ID NO:1, SEQ ID NO:2, Chimeric Molecule 3, and Chimeric Molecule 4 were tested for their ability to bind to 2-5A-dependent RNase in vitro. The affinity of these 2-5A:AS constructs for 2-5A-dependent RNase was established with a highly specific radiobinding assay. This radiobinding assay measured the ability of 2-5A or 2-5A analogs to compete with a ^32 P-labeled 2-5A probe, ppp5'A2'p5'A2'p5'A2'p5'A3'-[^32 p]p5'C3'p, for binding to 2-5A-dependent RNase. The nitrocellulose filter binding assay of Knight et al. (Methods Enzymol. , 79: 216 (1981)) was used to measure the concentrations of 2-5A or the chimeric 2-5A:AS molecule required to compete with the radiolabeled probe, ppp5'A2'-p5'A2'p5'A2'p5A3'[^32 P]p5C3'p, for binding to 2-5A-dependentRNase in a mouse liver extract.
FIGS. 3A and 3B show the relative affinities of SEQ ID NO:1 (.tangle-solidup.) and 2-5A (ppp5'A2'p5'A2'p5'A) (.circle-solid.) for 2-5A-dependent RNase. A measure of 100% binding was found in the absence of any unlabeled oligonucleotide. The data for SEQ ID NO:1 and 2-5A in these figures represent the means and standard deviations from 6 and 7 assays, respectively.

TAR:A25 :vif RNA = test: Site-directed cleavage of TAR:A25:vif RNA in Daudi cell extract; type: biochemical, HIV-1
Excerpt: To determine the ability of the 2-5A:AS chimeric molecule SEQ ID NO:1 to induce site-directed RNA cleavage, a target RNA was constructed having an internal 3',5'-oligo(rA) tract. Hybridization between the (dT18) in SEQ ID NO:1 with the oligo(rA) in the target RNA attracts 2-5A-dependent RNase to the target RNA, resulting in a highly specific cleavage event. The experimental target, TAR:A25 :vif RNA, was produced in vitro from a pSP64-derived plasmid containing a partial cDNA for the HIV vif protein interrupted with 25 adenylyl residues. A control TAR:vif RNA was constructed with the A25 tract deleted. These RNA species, which lack 3'-poly(rA) tails, were radiolabeled at their 3'-termini with [5'-^32 p)-pCp by T4 RNA ligase and gel purified prior to the assay.
The 2-5A:AS strategy for site-directed RNA cleavage was next tested in a cell-free system consisting of a postribosomal supernatant fraction of human lymphoblastoid Daudi cells.
Daudi cell extracts prepared with dounce homogenization were made by the well known method of Wreschner, et al. in a buffer containing 40mM KCl; 10 mM HEPES pH 7.5; 2.5mM magnesium acetate; 0.5mM ATP; 2.5% glycerol and 2.0mM mercaptoethanol. The extract used in the RNA cleavage assays was the supernatant of a 100,000 ×g centrifugation of cell extract. About 100 nM radiolabeled RNA (approximately 25,000 counts/min/assay) was incubated with oligonucleotides at 30° C. in extract (10μl) supplemented with 75mM KCl in a final volume of 20 μl. Reactions were terminated and the RNA was extracted with phenollchloroform. The RNA was then ethanol precipitated and redissolved in sterile water and an equal volume of formamide gel sample buffer. Cleavage products were analyzed in 6% polyacrylamide/8M urea gels (30×40×0.04cm).
The cleavage reaction was performed after adding SEQ ID NO:l and purified radiolabeled TAR:A25 :vif RNA to the Daudi cell extract (without preannealing) followed by incubation at 30° C. In the absence of added oligonucleotide, the TAR:A25 :vif RNA was degraded with a half-life of about 90 minutes.
An experiment was conducted to analyze (A) the in vitro transcription of AccI restriction endonuclease-digested plasmids containing TAR:A25 :vif and TAR:vif sequences and (B) the specific cleavage of TAR:A25 ;vif RNA induced by SEQ ID NO:1 (100nM) in extracts of Daudi cells as a function of time. The breakdown of TAR:A25 :vif RNA (intact RNA) was proportional to the appearance of the specific cleavage product. Data was obtained by running a gel with the products of the experiment and then making an autoradiogram of the dried gel. The autoradiogram was then subjected to image analysis with a video camera (Sierra Scientific) and the QUICKCAPTURE.COPYRGT. (Marlboro, Mass.) and IMAGE.COPYRGT. computer programs run on a MACINTOSH IIci.cndot. computer. The percentage of RNA shown in FIG. 6 was based on the sum of the intact RNA and the specific RNA cleavage product.
Cleavage of TAR:A25 :vif RNA (about 100 nM) as a function of SEQ ID NO:1 concentration was also measured. The cleavage reaction was allowed to continue for 30 minutes in Daudi cell extract at 30° C. The levels of the specific cleavage products (relative peak areas) were determined from an autoradiogram as described in relation to FIG. 6 above. The results shown in FIGS. 6 and 7 were reproduced three times.

[1] = about 100 nM RNA, 30 minutes, 30° C., FIG. 7

## p5'A2'(p5'A2')2 P5'A2'p1[OCH2 (CH2)2 CH2 O]4p1[OCH2 (CH2)2 CH2 O]4p5'pdT3'(p5'dt3')16 p5'dt (AAAATTTTTTTTTTTTTTTTTT; chemistry not fully specified) [SEQ ID NO:1]
TAR:vif RNA
  specific cleavage in TAR:vif RNA lacking the oligo(rA) tract: failed to yield a specific cleavage
2-5A-dependent RNase; compared with ppp5'A2'p5'A2'p5'A, FIG. 3A
  IC50 / ability to bind 2-5A-dependent RNase compared with unmodified 2-5A: very little, if any, decrease in the IC50
2-5A-dependent RNase; mixed with excess poly(A), FIG. 3B
  binding affinity to 2-5A-dependent RNase when annealed to complementary sequence: no significant change in the binding affinity
TAR:A25 :vif RNA; 100 nM, Daudi extract, 30° C., FIG. 6
  incubation time for 50% breakdown to the specific cleavage product: 20 min
TAR:A25 :vif RNA; Daudi extract, 30° C.
  incubation time after which breakdown to cleavage product could be seen clearly: 5 min
TAR:A25 :vif RNA; Daudi extract, 30° C., 30 minutes
  specific cleavage of TAR:A25:vif RNA: nearly quantitative conversion of the intact RNA to a specific cleavage product; also recorded: Specific cleavage of the substrate was observed
TAR:A25 :vif RNA; [1]
  lowest concentration at which cleavage reaction was observed: 25 nM
  optimal concentration for the cleavage reaction: 250 nM
TAR:A25 :vif RNA; versus no added oligonucleotide (half-life about 90 minutes)
  increase of rate of breakdown of TAR:A25:vif RNA: more than four-fold
